From ChEMBL document CHEMBL1121659 (J Med Chem, 1981)
Active and inactive are the calls of the source. The rule behind the calls is not given here.

Columns and labels:
[1] = tested on: Mus musculus; assay: Compound was evaluated for the neuro toxicity up to 4 hours after doses of <=300 mg/kg administered intraperitoneally; No toxicity; format: organism-based; details: in vivo, ip
[2] = tested on: Mus musculus; assay: Compound was evaluated for the dose required for protection against scMET-induced seizures after 4 hours of intraperitoneal administration; Inactive; format: functional, organism-based
[3] = tested on: Mus musculus; assay: Compound was evaluated for the dose required for protection against MES-induced seizures after 4 hours of intraperitoneal administration; Inactive; format: functional, organism-based
[4] = tested on: Mus musculus; assay: Compound was evaluated for the dose required for protection against scMET-induced seizures after 4 hours of intraperitoneal administration; format: functional
[5] = tested on: Mus musculus; assay: Compound was evaluated for the dose required for protection against MES-induced seizures after 4 hours of intraperitoneal administration at the doses< = 0.77-0.90 mM/kg; Inactive; format: functional, organism-based

Row | Compound | Neurotoxicity [1] | Activity [2] | Activity [3] | Activity [4] [mmol/kg] | Activity [5]
1 | Cc1cccc(C2(c3ccc(C(F)(F)F)cc3)NC(=O)NC2=O)c1 (centres undefined) | No toxicity | inactive | inactive | – | –
2 | Cc1ccc(C2(c3cccc(C(F)(F)F)c3)NC(=O)NC2=O)cc1 (stereo in doubt; 7) | No toxicity | inactive | inactive | – | –
3 | O=C1NC(=O)C(c2cccc(C(F)(F)F)c2)(c2cccc(C(F)(F)F)c2)N1 | No toxicity | – | – | 2.6 | inactive
4 | Cc1ccc(C2(c3ccc(C(F)(F)F)cc3)NC(=O)NC2=O)cc1 (centres undefined) | No toxicity | inactive | inactive | – | –
5 | Cc1cccc(C2(c3cccc(C(F)(F)F)c3)NC(=O)NC2=O)c1 (stereo in doubt; 9) | – | inactive | inactive | – | –
